In US5416087A, “Bis-benzo, cyclohepta piperidylidene, piperidine and piperazine compounds, compositions and methods of use” (priority 1993, dated 1995):
pIC50: −log10 of the molar value.

Experiments:
[1] = tested on: Histamine (agonist bronchospasm); test: Histamine-induced bronchospasm in guinea pigs; assay type: in vivo, Male Hartley guinea pigs; details: dose 1 mg/kg oral, histamine 10 ug/kg i.v.
Method: (§1) Male Hartley guinea pigs (450-550 g) were obtained from Charles River Breeding Laboratories. The animals were fasted overnight and the following day were anesthetized with 0.9 ml/kg i.p. of dialurethane (containing 0.1 g/ml diallylbarbituric acid, 0.4 g/ml ethylurea and 0.4 g/ml urethane). The left jugular vein was cannulated for the administration of compounds. The trachea was cannulated and the animals were ventilated by a rodent respirator at 55 strokes/min. with a stroke volume of 4 ml. A side arm to the tracheal cannula was connected to a pressure transducer to obtain a continuous measure of inflation pressure. Bronchoconstriction was measured as the percent increase in inflation pressure that peaked within 5 min. after challenge with spasmogen. […] Each animal was challenged with only a single spasmogen. The effect of a compound on the bronchospasm is expressed as a percent inhibition of the increase in inflation pressure compared to the increase in a control group.

[2] = tested on: PAF (agonist bronchospasm); test: PAF-induced bronchospasm in guinea pigs; assay type: in vivo, Male Hartley guinea pigs; details: dose 10 mg/kg oral, PAF 0.4 μg/kg i.v.
Method: as §1

[3] = tested on: PAF-induced platelet aggregation; test: Platelet aggregation assay (PAF-induced aggregation of human platelet-rich plasma); assay type: cell-based; details: 2 min, human PRP, PAF 1-5×10^-8 M, 37° C., 2 min. incubation, read-out: PAF Antagonism (in vitro) IC50
Method: Platelet-activating factor (PAF) causes aggregation of platelets by a receptor-mediated mechanism. Therefore, PAF-induced platelet aggregation provides a simple and convenient assay to screen compounds for PAF antagonism.
Blood was centrifuged at 110×g for 15 min. and the supernatant platelet-rich plasma (PRP) carefully transferred into a polypropylene tube. Platelet-poor-plasma (PPP) was prepared by centrifuging PRP at 12,000×g for 2 min. (Beckman Microfuge B). PRP was used within 3 hr. of drawing the blood.
PAF was dissolved in chloroform:methanol (1:1, v/v) at a concentration of 2 mg/ml and stored at -70° C. An aliquot of this solution was transferred to a polypropylene tube and dried under a flow of nitrogen gas. […] This stock solution was further diluted to appropriate concentrations in Hepes-saline-BSA buffer. Collagen (Sigma) and adenosine diphosphate (ADP) (Sigma) were purchased as solutions. Test compounds were initially dissolved in dimethyl sulfoxide (DMSO) at a concentration of 50 mM and then further diluted in Hepes-saline-BSA buffer to achieve appropriate concentrations.
When an aggregating agent such as PAF is added to PRP, platelets aggregate. An aggregometer quantifies this aggregation by measuring and comparing light (infra-red) transmission through PPP and PRP. […]

Row | SMILES | Histamine Agonist Bronchospasm (in vivo) - oral, % Inhibition [1] | PAF Agonist Bronchospasm (in vivo) - oral, % Inhibition [2] | pIC50 [3]
1 | CCOC(=O)N1CCC(=C2c3ccc(Cl)cc3CCc3cccnc32)CC1 [Compound 1] | > 50% | < 50% | –
2 | O=C(c1cc[n+]([O-])cc1)N1CCN(C2c3ccccc3-c3ccccc32)CC1 [Example 8] | – | – | 5.60
